# Ends that are not written are not given here.
# Tests used:
# dipeptidyl peptidase IV = test: DPP-IV assay (Example 5): hydrolysis followed by HPLC and ES-MS; assay type: in vitro ADME; conditions: After 18 hr incubation, 37°C, 50 mM triethanolamine buffer, pH 7.8, 11 milliunits DPP-IV
# Description: Biological Chemistry. 385, pp 169-177.
# Briefly, 100 - 200 microgams of each peptide was dissolved in 0.5 ml of 50 mM triethanolamine buffer, pH 7.8. To this was added a 10 microlitre solution of 11 milliunits DPP-IV (Sigma) and the solutions incubated at 37°C for up to 42 hours. […] The incubations were terminated by addition of 5 microlitres TFA to each tube and 50 microlitre of each were injected onto a reversed phase 4.6 x 250 mm C18 HPLC column, eluting a gradient of 20% - 45% acetonitrile in 0.1 % TFA/water over 25 minutes. […] After 42 hours, the 2 analogues slowly degraded to a product that gave a mass spectrum consistent with the mass of the 9-37 sequence, indicating longer term instability of the urea bond. This represented as much as 15% of the product by HPLC. This degradation appeared to be non-DPP-IV related, since samples without enzyme gave the same profile.
# DPP-IV = test: Dipeptidyl peptidase IV (DPP-IV) assays (Example 10): DPP-IV digestion monitored by RP-HPLC; assay type: in vitro ADME; conditions: PBS/TEthA, pH 7.5, 37°
# Description: Their stabilities were monitored by RP-HPLC, noting the disappearance of the intact sequence and appearance of a species missing the N terminal dipeptide or similar fragment.
# [1] = Control study: chemical stability in PBS/triethanolamine solution in the absence of DPP-IV; assay type: physicochemical; conditions: no DPP-IV; for percentage of each analogue remaining: PBS/TEthA, pH 7.5, 37°
# Description: In the control study, peptides were incubated with PBS/triethanolamine solution in the absence of DPP-IV to measure their chemical stability.
# [2] = active form of GLP-1; DPP IV cleavage between Ala8 and Glu9; cited from earlier work
Compound,cleavage of the N terminal dipeptide by DPP-IV (dipeptidyl peptidase IV),percentage of each analogue remaining (DPP-IV; Time 0 hr) [%],percentage of each analogue remaining ([1]; Time 0 hr) [%],percentage of each analogue remaining (DPP-IV; Time 22 hr) [%],percentage of each analogue remaining ([1]; Time 22 hr) [%],percentage of each analogue remaining ([1]; Time 47 hr) [%],"non-enzymatic degradation ([1]; after 47 hr, by HPLC)",circulating half-life [2]
HAEGTFTSDVSSYLEG [GLP-1 7-22],completely cleaved,,,,,,,
"CC[C@H](C)[C@H](NC(=O)[C@H](Cc1ccccc1)NC(=O)[C@H](CCC(=O)O)NC(=O)[C@H](CCCCN)NC(=O)[C@H](C)NC(=O)[C@H](C)NC(=O)[C@H](CCC(N)=O)NC(=O)CNC(=O)[C@H](CCC(=O)O)NC(=O)[C@H](CC(C)C)NC(=O)[C@H](Cc1ccc(O)cc1)NC(=O)[C@H](CO)NC(=O)[C@H](CO)NC(=O)[C@@H](NC(=O)[C@H](CC(=O)O)NC(=O)[C@H](CO)NC(=O)[C@@H](NC(=O)[C@H](Cc1ccccc1)NC(=O)[C@@H](NC(=O)CNC(=O)[C@H](CCC(=O)O)NC(=O)[C@H](C)NC(=O)[C@@H](N)Cc1c[nH]cn1)[C@@H](C)O)[C@@H](C)O)C(C)C)C(=O)N[C@@H](C)C(=O)N[C@@H](Cc1c[nH]c2ccccc12)C(=O)N[C@@H](CC(C)C)C(=O)N[C@H](C(=O)N[C@@H](CCCCN)C(=O)NCC(=O)N[C@@H](CCCN=C(N)N)C(=O)NCC(=O)O)C(C)C [Native GLP-1 7-37, glucagon-like peptide-1 (7-37)]",,,,,,,,less than 2 minutes

# The next lines start with results.
cleavage of the N terminal dipeptide by DPP-IV (dipeptidyl peptidase IV),percentage of each analogue remaining (DPP-IV; Time 0 hr) [%],percentage of each analogue remaining ([1]; Time 0 hr) [%],percentage of each analogue remaining (DPP-IV; Time 22 hr) [%],percentage of each analogue remaining ([1]; Time 22 hr) [%],percentage of each analogue remaining ([1]; Time 47 hr) [%],"non-enzymatic degradation ([1]; after 47 hr, by HPLC)",Compound,circulating half-life [2]
,95,98,,,,,"CC[C@H](C)[C@H](NC(=O)[C@H](Cc1ccccc1)NC(=O)[C@H](CCC(=O)O)NC(=O)[C@H](CCCCN)NC(=O)[C@H](C)NC(=O)[C@H](C)NC(=O)[C@H](CCC(N)=O)NC(=O)CNC(=O)[C@H](CCC(=O)O)NC(=O)[C@H](CC(C)C)NC(=O)[C@H](Cc1ccc(O)cc1)NC(=O)[C@H](CO)NC(=O)[C@H](CO)NC(=O)[C@@H](NC(=O)[C@H](CC(=O)O)NC(=O)[C@H](CO)NC(=O)[C@@H](NC(=O)[C@H](Cc1ccccc1)NC(=O)[C@@H](NC(=O)CNC(=O)[C@H](CCC(=O)O)NC(=O)CNNC(=O)[C@@H](N)Cc1c[nH]cn1)[C@@H](C)O)[C@@H](C)O)C(C)C)C(=O)N[C@@H](C)C(=O)N[C@@H](Cc1c[nH]c2ccccc12)C(=O)N[C@@H](CC(C)C)C(=O)N[C@H](C(=O)N[C@@H](CCCCN)C(=O)NCC(=O)N[C@@H](CCCNC(=N)N)C(=O)NCC(=O)O)C(C)C [SP006, L-His-NH-NH-CH2-C(O)-Glu9-37]",
,95,98,<5,95,95,,"CC[C@H](C)[C@H](NC(=O)[C@H](Cc1ccccc1)NC(=O)[C@H](CCC(=O)O)NC(=O)[C@H](CCCCN)NC(=O)[C@H](C)NC(=O)[C@H](C)NC(=O)[C@H](CCC(N)=O)NC(=O)CNC(=O)[C@H](CCC(=O)O)NC(=O)[C@H](CC(C)C)NC(=O)[C@H](Cc1ccc(O)cc1)NC(=O)[C@H](CO)NC(=O)[C@H](CO)NC(=O)[C@@H](NC(=O)[C@H](CC(=O)O)NC(=O)[C@H](CO)NC(=O)[C@@H](NC(=O)[C@H](Cc1ccccc1)NC(=O)[C@@H](NC(=O)CNC(=O)[C@H](CCC(=O)O)NC(=O)CNNC(=O)[C@H](C)NC(=O)[C@@H](N)Cc1c[nH]cn1)[C@@H](C)O)[C@@H](C)O)C(C)C)C(=O)N[C@@H](C)C(=O)N[C@@H](Cc1c[nH]c2ccccc12)C(=O)N[C@@H](CC(C)C)C(=O)N[C@H](C(=O)N[C@@H](CCCCN)C(=O)NCC(=O)N[C@@H](CCCNC(=N)N)C(=O)NCC(=O)O)C(C)C [SP007, L-His-L-Ala-NH-NH-CH2-C(O)-Glu9-37]",
,95,98,95,95,,,CC[C@H](C)[C@H](NC(=O)[C@H](Cc1ccccc1)NC(=O)[C@H](CCC(=O)O)NC(=O)[C@H](CCCCN)NC(=O)[C@H](C)NC(=O)[C@H](C)NC(=O)[C@H](CCC(N)=O)NC(=O)CNC(=O)[C@H](CCC(=O)O)NC(=O)[C@H](CC(C)C)NC(=O)[C@H](Cc1ccc(O)cc1)NC(=O)[C@H](CO)NC(=O)[C@H](CO)NC(=O)[C@@H](NC(=O)[C@H](CC(=O)O)NC(=O)[C@H](CO)NC(=O)[C@@H](NC(=O)[C@H](Cc1ccccc1)NC(=O)[C@@H](NC(=O)CNC(=O)[C@H](CCC(=O)O)NC(=O)CONC[C@H](C)NC(=O)[C@@H](N)Cc1c[nH]cn1)[C@@H](C)O)[C@@H](C)O)C(C)C)C(=O)N[C@@H](C)C(=O)N[C@@H](Cc1c[nH]c2ccccc12)C(=O)N[C@@H](CC(C)C)C(=O)N[C@H](C(=O)N[C@@H](CCCCN)C(=O)NCC(=O)N[C@@H](CCCNC(=N)N)C(=O)NCC(=O)O)C(C)C [SP005],
,95,98,95,,,20-25%,"CC[C@H](C)[C@H](NC(=O)[C@H](Cc1ccccc1)NC(=O)[C@H](CCC(=O)O)NC(=O)[C@H](CCCCN)NC(=O)[C@H](C)NC(=O)[C@H](C)NC(=O)[C@H](CCC(N)=O)NC(=O)CNC(=O)[C@H](CCC(=O)O)NC(=O)[C@H](CC(C)C)NC(=O)[C@H](Cc1ccc(O)cc1)NC(=O)[C@H](CO)NC(=O)[C@H](CO)NC(=O)[C@@H](NC(=O)[C@H](CC(=O)O)NC(=O)[C@H](CO)NC(=O)[C@@H](NC(=O)[C@H](Cc1ccccc1)NC(=O)[C@@H](NC(=O)CNC(=O)[C@H](CCC(=O)O)NC(=O)[C@H](C)NNC(=O)[C@@H](N)Cc1c[nH]cn1)[C@@H](C)O)[C@@H](C)O)C(C)C)C(=O)N[C@@H](C)C(=O)N[C@@H](Cc1c[nH]c2ccccc12)C(=O)N[C@@H](CC(C)C)C(=O)N[C@H](C(=O)N[C@@H](CCCCN)C(=O)NCC(=O)N[C@@H](CCCNC(=N)N)C(=O)NCC(=O)O)C(C)C [SP008, L-His-NH-NH-CH(CH3)-C(O)-Glu9-37]",

# Reference: patent publication EP1943275B1, “INSULINOTROPIC COMPOUNDS AND USES THEREOF” (Activotec SPP Limited, priority 2005, dated 2010)
